Reference: article PMC2944806, “HLA Class I Binding of HBZ Determines Outcome in HTLV-1 Infection” (PLoS Pathogens, 2010)

Key:
[1] = biological target: T1, HLA class I molecule B*0702 (Homo sapiens, UniProt P01889); assay: REVEAL HLA-peptide binding assay, B*0702; parameters: concentration or dose not given beside the values; conditions: assembly of peptide-HLA complex by ELISA with conformation-dependent anti-HLA antibody, relative to positive control peptide for that allele, comparable within an allele only
T1 construct: purchased ProImmune Ltd., Oxford, UK
Procedure: (§1) The REVEAL HLA-peptide binding assay (ProImmune Ltd., Oxford, UK) was used to quantify peptide-HLA binding. For each allele-peptide combination that was tested, assembly of peptide-HLA complexes was quantified by ELISA with a conformation-dependent anti-HLA antibody. Samples of assembling peptide-HLA complexes were taken at a defined time point and snap-frozen in liquid nitrogen prior to analysis. The assembly for each peptide-HLA complex was then compared against a positive control peptide for that allele as the percentage of assembled peptide relative to that control. We selected four HLA class I alleles and 50 HTLV-1 peptides for each allele. The allele choice was based on allele frequency in the Kagoshima database and included 2 A alleles and 2 B alleles as well as alleles for which we knew that the epitope prediction tended to be poor. The 50 HTLV-1 nonamer peptides for each allele were selected to represent a range of predicted binding affinities, from weak to strong binding peptides. They originated from 4 HTLV-1 reference strain proteins: Tax, HBZ, Gag and Polymerase.
(§2) Note the binding score is with respect to a reference good binding peptide for each allele and therefore scores can be compared within an allele but not between alleles.

[2] = biological target: T2, HLA class I molecule A*0201 (Homo sapiens, UniProt P04439, D140Y/D185E/D98H/E176V/E277Q/G131W/G231S/I119V/I121R/I166T/I218V/L300P/L318F/N151K/N90K/P208A/P217A/Q86G/Q94H/R138H/R169H/T345S); assay type: binding; conditions: REVEAL assay, assembly of peptide-HLA complex by ELISA with conformation-dependent anti-HLA antibody, relative to positive control peptide for that allele, comparable within an allele only
T2 construct: purchased ProImmune Ltd., Oxford, UK

[3] = biological target: HLA class I molecule B*3501 (Homo sapiens, UniProt P01889, A329T/A93T/A95T/C349S/D201E/D98Y/E176V/E187L/E204Q/E69T/I218V/K202T/L119I/Q94N/R155S/R180L/S121R/S35A/S48A/T118I/V127L/V306I/V36M/Y140S/Y91F); assay: REVEAL HLA-peptide binding assay, B*3501; conditions: assembly of peptide-HLA complex by ELISA with conformation-dependent anti-HLA antibody, relative to positive control peptide for that allele, comparable within an allele only
Procedure: as §1, §2

[4] = biological target: T3, HLA class I molecule A*2402 (Homo sapiens, UniProt P04439, D101N/D140Y/D185E/E176V/E190D/F33S/G103R/G107R/I119L/I121M/I306V/K335N/L105A/L180Q/L300P/N151K/N90K/Q86E/Q94H/R106L/R138H/R89G/T104I/T345S/V100E/W191G/Y123F); assay type: binding; conditions: REVEAL assay, assembly of peptide-HLA complex by ELISA with conformation-dependent anti-HLA antibody, relative to positive control peptide for that allele, comparable within an allele only
T3 construct: purchased ProImmune Ltd., Oxford, UK

How did the “Score (experimentally measured binding affinity, % binding compared to control peptide)” value [1] turn out when RAEKKAADV [HTLV-1 nonamer peptide] was run?
Its value is 2.78%.

With LPGLNSRQW [HTLV-1 nonamer peptide] as the sequence, how does the “Score (experimentally measured binding affinity, % binding compared to control peptide)” value [1] read?
Its value is 6.78%.

For RPAPPPPSS [HTLV-1 nonamer peptide], which “Score (experimentally measured binding affinity, % binding compared to control peptide)” value [1] is on record?
Its value is 93.08%.

FVERLNIAL [HTLV-1 nonamer peptide] was tested. Which “Score (experimentally measured binding affinity, % binding compared to control peptide)” value [2] did it give?
The value was 6.6%.

What about the “Score (experimentally measured binding affinity, % binding compared to control peptide)” value [3] of the same sequence?
Its value is 13.69%.

What about the “Score (experimentally measured binding affinity, % binding compared to control peptide)” value [1] of the same sequence?
Its value is 104.14%.

What does the source list for NFLQAAYRL [HTLV-1 nonamer peptide]?
Score (experimentally measured binding affinity, % binding compared to control peptide) [4]: 113.8%; Score (experimentally measured binding affinity, % binding compared to control peptide) [3]: 3.16%

How did the “Score (experimentally measured binding affinity, % binding compared to control peptide)” value [2] turn out when AAHHWLNFL [HTLV-1 nonamer peptide] was run?
Its value is 5.86%.

And the “Score (experimentally measured binding affinity, % binding compared to control peptide)” value [3]?
Its value is 0%.

What about the “Score (experimentally measured binding affinity, % binding compared to control peptide)” value [1] of the same sequence?
Its value is 27.59%.

For AASGLFRCL [HTLV-1 nonamer peptide], which “Score (experimentally measured binding affinity, % binding compared to control peptide)” value [3] is on record?
The value was 7.33%.

What about the “Score (experimentally measured binding affinity, % binding compared to control peptide)” value [1] of the same sequence?
The value was 107.28%.

How did the “Score (experimentally measured binding affinity, % binding compared to control peptide)” value [3] turn out when QPARAPVTL [HTLV-1 nonamer peptide] was run?
Its value is 55.56%.

What about the “Score (experimentally measured binding affinity, % binding compared to control peptide)” value [1] of the same sequence?
The value was 135.43%.

With RGRLRRGPP [HTLV-1 nonamer peptide] as the sequence, how does the “Score (experimentally measured binding affinity, % binding compared to control peptide)” value [1] read?
Its value is 1.21%.

Which “Score (experimentally measured binding affinity, % binding compared to control peptide)” value [1] does the source give for LPVMHPHGA [HTLV-1 nonamer peptide] here?
The value was 9.38%.

With SARLHRHAL [HTLV-1 nonamer peptide] as the sequence, how does the “Score (experimentally measured binding affinity, % binding compared to control peptide)” value [1] read?
The value was 236.66%.

What does the source list for LVLQSSSFI [HTLV-1 nonamer peptide]?
Score (experimentally measured binding affinity, % binding compared to control peptide) [2]: 41.33%; Score (experimentally measured binding affinity, % binding compared to control peptide) [1]: 1.65%

For QPRPPPGPC [HTLV-1 nonamer peptide], which “Score (experimentally measured binding affinity, % binding compared to control peptide)” value [1] is on record?
Its value is 138.82%.

YWQGRLEAM [HTLV-1 nonamer peptide] was tested. Which “Score (experimentally measured binding affinity, % binding compared to control peptide)” value [4] did it give?
Its value is 40.32%.

And the “Score (experimentally measured binding affinity, % binding compared to control peptide)” value [3]?
Its value is 7.1%.

For RDRQRRAEE [HTLV-1 nonamer peptide], which “Score (experimentally measured binding affinity, % binding compared to control peptide)” value [1] is on record?
Its value is 1.54%.

For IALETPARI [HTLV-1 nonamer peptide], which “Score (experimentally measured binding affinity, % binding compared to control peptide)” value [4] is on record?
Its value is 9.68%.

And the “Score (experimentally measured binding affinity, % binding compared to control peptide)” value [2]?
Its value is 17.01%.

Which “Score (experimentally measured binding affinity, % binding compared to control peptide)” value [1] does the source give for KARRRRRAE [HTLV-1 nonamer peptide] here?
The value was 0%.

For APLPHTSQC [HTLV-1 nonamer peptide], which “Score (experimentally measured binding affinity, % binding compared to control peptide)” value [1] is on record?
Its value is 135.12%.

What does the source list for KISLTTGAL [HTLV-1 nonamer peptide]?
Score (experimentally measured binding affinity, % binding compared to control peptide) [2]: 3.54%; Score (experimentally measured binding affinity, % binding compared to control peptide) [1]: 71.26%

How did the “Score (experimentally measured binding affinity, % binding compared to control peptide)” value [1] turn out when VPIRSRWAL [HTLV-1 nonamer peptide] was run?
The value was 125.64%.

How did the “Score (experimentally measured binding affinity, % binding compared to control peptide)” value [1] turn out when PPNHRPWQM [HTLV-1 nonamer peptide] was run?
The value was 103.11%.

What does the source list for HQLKKFLKI [HTLV-1 nonamer peptide]?
Score (experimentally measured binding affinity, % binding compared to control peptide) [4]: 46.49%; Score (experimentally measured binding affinity, % binding compared to control peptide) [2]: 0%

With YPGRVNEIL [HTLV-1 nonamer peptide] as the sequence, how does the “Score (experimentally measured binding affinity, % binding compared to control peptide)” value [3] read?
Its value is 109.69%.

What about the “Score (experimentally measured binding affinity, % binding compared to control peptide)” value [1] of the same sequence?
The value was 158.86%.

Which “Score (experimentally measured binding affinity, % binding compared to control peptide)” value [3] does the source give for LPFHSTLTT [HTLV-1 nonamer peptide] here?
Its value is 102.24%.

And the “Score (experimentally measured binding affinity, % binding compared to control peptide)” value [1]?
Its value is 97.77%.

What does the source list for SLVQLRQAL [HTLV-1 nonamer peptide]?
Score (experimentally measured binding affinity, % binding compared to control peptide) [2]: 6.84%; Score (experimentally measured binding affinity, % binding compared to control peptide) [3]: 0%; Score (experimentally measured binding affinity, % binding compared to control peptide) [1]: 119.22%

For “TPKDKTKVL [HTLV-1 nonamer peptide from Gag]”, which “Score (experimentally measured binding affinity, % binding compared to control peptide)” value [1] is on record?
Its value is 113.7%.

With STLTTPGLI [HTLV-1 nonamer peptide] as the sequence, how does the “Score (experimentally measured binding affinity, % binding compared to control peptide)” value [4] read?
The value was 0%.

And the “Score (experimentally measured binding affinity, % binding compared to control peptide)” value [2]?
Its value is 0.84%.

With LPVSCPEDL [HTLV-1 nonamer peptide] as the sequence, how does the “Score (experimentally measured binding affinity, % binding compared to control peptide)” value [3] read?
Its value is 74.86%.

And the “Score (experimentally measured binding affinity, % binding compared to control peptide)” value [1]?
The value was 6.44%.

How did the “Score (experimentally measured binding affinity, % binding compared to control peptide)” value [3] turn out when “MPVFTLSPV [HTLV-1 nonamer peptide from Pol]” was run?
The value was 114.77%.

What about the “Score (experimentally measured binding affinity, % binding compared to control peptide)” value [1] of the same sequence?
The value was 142.96%.

Which “Score (experimentally measured binding affinity, % binding compared to control peptide)” value [1] does the source give for LEAERRKLL [HTLV-1 nonamer peptide] here?
Its value is 1.08%.

With KQIAEYLKR [HTLV-1 nonamer peptide] as the sequence, how does the “Score (experimentally measured binding affinity, % binding compared to control peptide)” value [4] read?
Its value is 3.56%.

PYKRIEELL [HTLV-1 nonamer peptide] was tested. Which “Score (experimentally measured binding affinity, % binding compared to control peptide)” value [4] did it give?
Its value is 99.06%.

How did the “Score (experimentally measured binding affinity, % binding compared to control peptide)” value [1] turn out when TPNIPPSFL [HTLV-1 nonamer peptide] was run?
The value was 138.52%.

With FPGFGQSLL [HTLV-1 nonamer peptide] as the sequence, how does the “Score (experimentally measured binding affinity, % binding compared to control peptide)” value [3] read?
Its value is 55.31%.

And the “Score (experimentally measured binding affinity, % binding compared to control peptide)” value [1]?
The value was 102.99%.

How did the “Score (experimentally measured binding affinity, % binding compared to control peptide)” value [4] turn out when VFTLSPVII [HTLV-1 nonamer peptide] was run?
The value was 97.21%.

Which results are given for DPISRLNAL [HTLV-1 nonamer peptide]?
Score (experimentally measured binding affinity, % binding compared to control peptide) [3]: 67.38%; Score (experimentally measured binding affinity, % binding compared to control peptide) [1]: 115.84%

Which “Score (experimentally measured binding affinity, % binding compared to control peptide)” value [2] does the source give for RVNEILHIL [HTLV-1 nonamer peptide] here?
Its value is 49.35%.

What about the “Score (experimentally measured binding affinity, % binding compared to control peptide)” value [3] of the same sequence?
The value was 8.02%.

And the “Score (experimentally measured binding affinity, % binding compared to control peptide)” value [1]?
Its value is 89.83%.

WQGRLEAMW [HTLV-1 nonamer peptide] was tested. Which “Score (experimentally measured binding affinity, % binding compared to control peptide)” value [4] did it give?
The value was 2.54%.

For RRRAEKKAA [HTLV-1 nonamer peptide], which “Score (experimentally measured binding affinity, % binding compared to control peptide)” value [1] is on record?
Its value is 0%.

For VPYKRIEEL [HTLV-1 nonamer peptide], which “Score (experimentally measured binding affinity, % binding compared to control peptide)” value [1] is on record?
Its value is 133.31%.

How did the “Score (experimentally measured binding affinity, % binding compared to control peptide)” value [4] turn out when TWPLLPHVI [HTLV-1 nonamer peptide] was run?
The value was 118.19%.

How did the “Score (experimentally measured binding affinity, % binding compared to control peptide)” value [4] turn out when LSPPITWPL [HTLV-1 nonamer peptide] was run?
Its value is 4.52%.

And the “Score (experimentally measured binding affinity, % binding compared to control peptide)” value [2]?
Its value is 34.53%.

And the “Score (experimentally measured binding affinity, % binding compared to control peptide)” value [3]?
The value was 41.83%.

What does the source list for WQMKDLQAI [HTLV-1 nonamer peptide]?
Score (experimentally measured binding affinity, % binding compared to control peptide) [4]: 0%; Score (experimentally measured binding affinity, % binding compared to control peptide) [2]: 44.68%

With RPPRGLAAH [HTLV-1 nonamer peptide] as the sequence, how does the “Score (experimentally measured binding affinity, % binding compared to control peptide)” value [3] read?
The value was 34.86%.

What about the “Score (experimentally measured binding affinity, % binding compared to control peptide)” value [1] of the same sequence?
The value was 143.59%.

How did the “Score (experimentally measured binding affinity, % binding compared to control peptide)” value [4] turn out when LWLAAFAAL [HTLV-1 nonamer peptide] was run?
The value was 30.63%.

With PYNPTSSGL [HTLV-1 nonamer peptide] as the sequence, how does the “Score (experimentally measured binding affinity, % binding compared to control peptide)” value [4] read?
The value was 104.86%.

Which “Score (experimentally measured binding affinity, % binding compared to control peptide)” value [4] does the source give for KYTLQSYGL [HTLV-1 nonamer peptide] here?
The value was 104.78%.

Which results are given for HPGQLGAFL [HTLV-1 nonamer peptide]?
Score (experimentally measured binding affinity, % binding compared to control peptide) [3]: 34.24%; Score (experimentally measured binding affinity, % binding compared to control peptide) [1]: 60.82%
